Here are results for 3 molecules from patent US9695155B2, “Herbicidal substituted pyrimidinyloxy benzene compounds” (E. I. DU PONT DE NEMOURS AND COMPANY, priority 2013, dated 2017).

One experiment deals with field bindweed. Briefly: Test E postemergence. The format is in vivo, Convolvulus arvensis. The following applies: Convolvulus arvensis, post-emergence, read-out: Plant response rating, Field Bindweed; for pest or weed control at 31 g/ha: 31 g ai/ha; for pest or weed control at 62 g/ha: 62 g ai/ha; for pest or weed control at 125 g/ha: 125 g ai/ha; for pest or weed control at 16 g/ha: 16 g ai/ha. An excerpt:
(§1) Seeds of plant species selected from corn (Zea mays), soybean (Glycine max), velvetleaf (Abutilon theophrasti), lambsquarters (Chenopodium album), wild poinsettia (Euphorbia heterophylla), palmer pigweed (Amaranthus palmeri), waterhemp (common waterhemp, Amaranthus rudis), surinam grass (Brachiaria decumbens), large (Lg) crabgrass (Digitaria sanguinalis), Brazilian crabgrass (Digitaria horizontalis), fall panicum (Panicum dichotomiflorum), giant foxtail (Setaria faberii), green foxtail (Setaria viridis), goosegrass (Eleusine indica), johnsongrass (Sorghum halepense), ragweed (common ragweed, Ambrosia elatior), barnyardgrass (Echinochloa crus-galli), sandbur (southern sandbur, Cenchrus echinatus), arrowleaf sida (Sida rhombifolia), Italian ryegrass (Lolium multiflorum), dayflower (Virginia (VA) dayflower, Commelina virginica), field bindweed (Convolvulus arvensis), morningglory (Ipomoea coccinea), nightshade (eastern black nightshade, Solanum ptycanthum), kochia (Kochia scoparia), yellow nutsedge (Cyperus esculentus), cocklebur (common cocklebur, Xanthium strumarium), smartweed (ladysthumb smartweed, and hairy beggarticks (Bidens pilosa), were planted into a silt loam soil and treated preemergence with test chemicals formulated in a non-phytotoxic solvent mixture which included a surfactant.
(§2) At the same time, plants from these crop and weed species and also horseweed (Canada horseweed, Conyza canadensis), waterhemp_RES1, (ALS & Triazine resistant common waterhemp, Amaranthus rudis), and waterhemp_RES2, (ALS & HPPD resistant common waterhemp, Amaranthus rudis) were planted in pots containing Redi-Earth® planting medium (Scotts Company, 14111 Scottslawn Road, Marysville, Ohio 43041) comprising spaghnum peat moss, vermiculite, wetting agent and starter nutrients were treated with postemergence applications of test chemicals formulated in the same manner. Plants ranged in height from 2 to 18 cm for postemergence treatments (1- to 4-leaf stage). Treated plants and controls were maintained in a greenhouse for 14 to 21 days, after which time all species were compared to controls and visually evaluated. Plant response ratings, summarized in Table E, are based on a scale of 0 to 100 where 0 is no effect and 100 is complete control. A dash (-) response means no test result.

The next experiment deals with palmer pigweed. Briefly: Test E postemergence. Format: in vivo, Amaranthus palmeri. As to conditions: post-emergence, read-out: Plant response rating, Pigweed, Palmer; for pest or weed control at 31 g/ha: 31 g ai/ha; for pest or weed control at 62 g/ha: 62 g ai/ha; for pest or weed control at 125 g/ha: 125 g ai/ha; for pest or weed control at 16 g/ha: 16 g ai/ha.
From the text: as §1, §2

A further experiment deals with wild poinsettia. Briefly: Test E postemergence. The format is in vivo, Euphorbia heterophylla. As to conditions: Euphorbia heterophylla, post-emergence, read-out: Plant response rating, Poinsettia, Wild; for pest or weed control at 31 g/ha: 31 g ai/ha; for pest or weed control at 62 g/ha: 62 g ai/ha; for pest or weed control at 125 g/ha: 125 g ai/ha; for pest or weed control at 16 g/ha: 16 g ai/ha. In a few lines:
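Test chemicals formulated in a non-phytotoxic solvent mixture containing a surfactant were applied preemergence to seeds in silt loam soil or postemergence to plants at the 1- to 4-leaf stage in potting mix. After 14 to 21 days in a greenhouse, injury was visually rated against controls on a 0-100 scale (0 = no effect, 100 = complete control).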

Another experiment concerns corn. In words: Test C preemergence. As to conditions: Zea mays, pre-emergence; for plant injury at 125 g/ha: 125 g ai/ha. The format is in vivo, Zea mays. Put shortly: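 Whole-plant greenhouse test with surfactant-containing solvent formulation, applied preemergence to sown loam–sand pots or postemergence to 2–18 cm plants. Scored by eye 13 to 15 days on, 0–100 scale.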

The mark [1] stands for this setting: postemergence, 8 g ai/ha, scale 0 to 100, 0 no effect, 100 complete control.
Where [2] appears, read: postemergence, scale 0 to 100, 0 no effect, 100 complete control.
Setting [3] is: preemergence, scale 0 (no effect) to 100 (complete control), read-out: Corn plant response rating.
[4] abbreviates: Postemergence, 250 g ai/ha, scale 0 to 100.

`N#Cc1cccc(Oc2ncc(Cl)cn2)c1-n1cc(OCC(F)(F)F)cn1` [Compound 274, 3-[(5-chloro-2-pyrimidinyl)oxy]-2-[4-(2,2,2-trifluoroethoxy)-1H-pyrazol-1-yl]benzonitrile]: the pest or weed control at 31 g/ha came to 50% with field bindweed (Postemergence, scale 0 to 100); 85% with palmer pigweed (Postemergence, scale 0 to 100); 70% in the experiment on wild poinsettia (Postemergence, scale 0 to 100). The pest or weed control at 62 g/ha in the experiment with field bindweed (Postemergence, scale 0 to 100) is 70%; in the experiment with palmer pigweed (Postemergence, scale 0 to 100), 95%; in the experiment on wild poinsettia (Postemergence, scale 0 to 100), 70%. The pest or weed control at 125 g/ha with field bindweed (Postemergence, scale 0 to 100) worked out at 75%; in the experiment on palmer pigweed (Postemergence, scale 0 to 100) it was 100%; in the experiment on wild poinsettia (Postemergence, scale 0 to 100), 70%. The pest or weed control at 8 g/ha with field bindweed (setting [1]) was determined as 60%; in the experiment on palmer pigweed (setting [1]) it was 70%; in the experiment on wild poinsettia (setting [1]), 50%. Moreover, the pest or weed control at 16 g/ha in the experiment on field bindweed (setting [2]) worked out at 50%; in the experiment with palmer pigweed (setting [2]) it was 65%; with wild poinsettia (setting [2]), 65%. Also, in the experiment with corn (16 g ai/ha, preemergence, scale 0 to 100 (0 no effect, 100 complete control), read-out: Corn plant response rating), the plant injury at 16 g/ha was 5%. The plant injury at 125 g/ha in the experiment with corn (setting [3]) turned out to be 80%. The molecule also yielded a Corn plant response rating (crop injury, 0 = no effect, 100 = complete kill) at 62 g/ha in the experiment with corn (Preemergence, 62 g ai/ha, scale 0 to 100, 0 no effect, 100 complete control) of 85%.

With `N#Cc1cccc(Oc2ncc(F)cn2)c1-n1cc(C(F)(F)F)cn1` [Compound 79, 3-[(5-fluoro-2-pyrimidinyl)oxy]-2-[4-(trifluoromethyl)-1H-pyrazol-1-yl]benzonitrile], the pest or weed control at 31 g/ha turned out to be 70% in the experiment on field bindweed (Postemergence, scale 0 to 100); 50% with palmer pigweed (Postemergence, scale 0 to 100); 40% with wild poinsettia (Postemergence, scale 0 to 100). In addition, the pest or weed control at 62 g/ha turned out to be 80% with field bindweed (Postemergence, scale 0 to 100); 95% in the experiment with palmer pigweed (Postemergence, scale 0 to 100); 50% in the experiment with wild poinsettia (Postemergence, scale 0 to 100). Further, the pest or weed control at 125 g/ha stood at 80% with field bindweed (Postemergence, scale 0 to 100); 90% with palmer pigweed (Postemergence, scale 0 to 100); 60% in the experiment on wild poinsettia (Postemergence, scale 0 to 100). Further, the pest or weed control at 16 g/ha in the experiment with field bindweed (setting [2]) worked out at 60%; with palmer pigweed (setting [2]), 50%; with wild poinsettia (setting [2]), 40%. In addition, in the experiment on corn (setting [3]), the plant injury at 125 g/ha was found to be 80%. Moreover, the plant injury at 250 g/ha in the experiment with corn (250 g ai/ha, preemergence, scale 0 (no effect) to 100 (complete control), read-out: Corn plant response rating) turned out to be 95%. In the experiment with corn (Preemergence, 31 g ai/ha, scale 0 to 100, 0 no effect, 100 complete control), this molecule came in with a Corn plant response rating (crop injury, 0 = no effect, 100 = complete kill) at 31 g/ha of 40%.

On to `Clc1cnn(-c2ccccc2Oc2ncc(Br)cn2)c1` [Compound 5, 5-bromo-2-[2-(4-chloro-1H-pyrazol-1-yl)phenoxy]pyrimidine], for which the pest or weed control at 31 g/ha came to 20% in the experiment on field bindweed (Postemergence, scale 0 to 100); 75% in the experiment on palmer pigweed (Postemergence, scale 0 to 100); 20% in the experiment with wild poinsettia (Postemergence, scale 0 to 100). Besides, the pest or weed control at 62 g/ha was 30% with field bindweed (Postemergence, scale 0 to 100); 85% with palmer pigweed (Postemergence, scale 0 to 100); 30% in the experiment with wild poinsettia (Postemergence, scale 0 to 100). For the same molecule, the pest or weed control at 125 g/ha is 30% in the experiment on field bindweed (Postemergence, scale 0 to 100); 95% in the experiment with palmer pigweed (Postemergence, scale 0 to 100); 35% in the experiment on wild poinsettia (Postemergence, scale 0 to 100). Also, the pest or weed control at 250 g/ha in the experiment with field bindweed (setting [4]) came out at 40%; in the experiment with palmer pigweed (setting [4]), 98%; in the experiment on wild poinsettia (setting [4]) it was 50%. Moreover, the values for the pest or weed control at 16 g/ha in the experiment with field bindweed (setting [2]), in the experiment with palmer pigweed (setting [2]) and in the experiment on wild poinsettia (setting [2]) were 10%, 60% and 10%, respectively.
